# Data from patent publication US12102432B2, “Uses of transdermal glomerular filtration rate measurement in continuous renal replacement therapy” (MediBeacon Inc., priority 2018, dated 2024).
# Entries after “also recorded” stand apart in the source; their conditions may differ.
# What was measured:
# [1] = In vitro continuous hemodialysis (CVVHD) model, saturation coefficient; format: in vitro ADME, bovine; details: for Saturation coefficient (mean ± SD): blood flow 200 mL/min
# Method: For CVVHD experiments, the CLTM was assessed using a previously validated in vitro CVVHD model as illustrated in FIG. 6. Commonly used effluent flow rates of 16, 33, 50, and 100 mL/min, and a blood flow rate of 200 mL/min were used. Effluent was prepared according to directions from the manufacturer by mixing sodium bicarbonate powder (NATURALYTE® 4000, Fresenius Medical Care, Waltham, Mass., USA) with distilled water in a 45:1 ratio. After adding MB-102 and urea to the blood, it was recirculated through the circuit for 5 min for uniform coating of the extracorporeal circuit. A single-pass mode of the CVVHD procedure with four different flow rates was run in random order for each hemodiafilter. Blood samples were collected from the pre- and post-filter ports, and spent effluent samples were taken from the effluent port 5 min after initiation of the CVVHD experiments at all four effluent flow rates. These experiments were conducted on 6 new hemodiafilters and CRRT tubing sets. Saturation coefficient (SA) and CLTM were calculated as follows:
# [formula] CLdiff=(SA×Qd) Equation (6)
# where SA is the saturation coefficient; CUF is the concentration in the effluent; Ca is the concentration of the solute in the pre-filter; CV is the concentration of the solute in the post-filter; CLdiff is the diffusion clearance for post-filter replacement; Qd is the effluent flow rate.
# (§1) All blood samples were collected and centrifuged at 3000 rpm for 10 minutes. The plasma and effluent samples were transferred to cryovials in duplicate and stored at −80° C. until analysis. BUN concentrations were analyzed with Advia 1800 (Siemens Healthcare Diagnostic Inc., Tarrytown, N.Y., USA) having a lower limit of quantification of 5 mg/dL.
# (§2) Similarly, six CVVH and CVVHD experiments with each hemodiafilter were used to detect a 25% difference in MB-102 CLTM between hemodiafilters. Assumptions used in these calculations included: a power of 90% and a standard deviation of 10% with a significance level of p<0.05. A two-tailed, unpaired t-test was used to compare differences between the two hemodiafilters, and the analysis of variance was used to compare different QUF and Qd within each hemodiafilter type.
# [2] = In vitro continuous hemofiltration (CVVH) model, sieving coefficient; format: in vitro ADME, bovine; details: for Mean sieving coefficient: CVVH
# Method: The procedure for the CVVH study was conducted using the model CVVH system illustrated in FIG. 5. The CLTM of urea and MB-102 were evaluated with different blood flow rates, ultrafiltration rate (Quf) and hemodiafilters (Table 1). In a closed-loop system, the formed effluent was returned to the blood as a post-filter replacement fluid downstream from the post-hemodiafilter blood sampling port. Pre- and post-hemodiafilter blood samples, and effluent samples were collected concurrently. Six experiments were conducted for each hemodiafilter, and new hemodiafilters and CRRT apparatus were used for each experiment. Sieving coefficient (SC) and CLTM were calculated as follows:
# [formula] where Sc is the sieving coefficient; Cuf is the concentration in the effluent; Ca is the concentration of the solute in the pre-filter; and Cv is the concentration of the solute in the post-filter. CLconv=SC×QUF Equation (4) wherein CLconv is the convective clearance for the post-filter replacement; QUF is the ultrafiltration rate.
# as §1, §2
# [3] = In vivo clearance by CVVHD in porcine model with bilateral nephrectomy; parameters: species or system Swine
# [4] = stated as pharmacokinetic parameter, no test described; cited from earlier work
# [5] = Adsorption of MB-102 to CRRT apparatus, in vitro CVVH model; format: in vitro ADME, bovine; details: for mean percent change at the end of experiment: average of 6 experiments, 60 min
# Method: As an initial step, it was determined if the compound MB-102 adsorbs onto the hemodiafilter, tubing or other parts of the CRRT instrument. This study used a continuous venovenous hemofiltration (CVVH) configuration to assess MB-102 adsorptive clearance with a previously validated in vitro CVVH model using 1 L of pH regulated, citrate-anti-coagulated bovine blood. Using a Braun DIAPACT™ CRRT system, two different hemodiafilters were tested: the HF1400 and the M150 hemodiafilters. New bovine blood, hemodiafilters, and CRRT tubing sets were used in each experiment. The blood was continuously stirred and maintained at 37° C. in a water bath during all experiments. Reconstituted MB-102 was added to the blood to achieve a final concentration of ˜6.2 mg/L. Urea was used as a control and added to the blood to produce a blood urea nitrogen (BUN) concentration of ˜75 mg/dL. Blood flow rates of 200 mL/min with an ultrafiltration rate (Quf) of 33 mL/min were tested. This maximized MB-102 contact with the membranes, both on the blood side and via convection through the hemodiafilter membrane. A closed system was developed to maintain a constant volume in the extracorporeal system. The effluent was used as the replacement fluid which was returned to the blood as a post-filter replacement fluid to maintain a constant blood volume. The CRRT instrument was primed with normal saline before operation, consequently the urea and MB-102 dilution caused by the residual priming solution was accounted for. Blood samples were collected from the pre-filter port at 0 (baseline), 5 (at which time mixing was complete), 10, 20, 30, and 60 minutes. Each experiment was repeated six times with new hemodiafilters and tubing sets.
# Equations used to calculate the dilution factor and adsorption are as follows:
# [formula] wherein C0 is the concentration of MB-102 in the pre-filter at time=0 minutes; and C60 is the concentration of MB-102 in the pre-filter at time=60 minutes.
# [formula] where [Urea0] is the urea concentration in the pre-filter at time=0 minutes; and [Urea60] is the urea concentration in the pre-filter at time=60 minutes.
# as §1, with “mg/dL. […]” for “mg/dL.”
# [6] = assembly on chest (QLS26), blood flow rate 100, effluent flow rate 20 mL/min, 1st of four regions
# [7] = assembly on chest (QLS26), blood flow rate 200, effluent flow rate 35 mL/min, 2nd of four regions
# [8] = assembly on chest (QLS26), blood flow rate 200, effluent flow rate 35 mL/min, 4th of four regions
# [9] = assembly on sternum (QLS25), blood flow rate 100, effluent flow rate 20 mL/min, 1st of four regions
# [10] = assembly on sternum (QLS25), blood flow rate 100, effluent flow rate 20 mL/min, 3rd of four regions
# [11] = assembly on sternum (QLS25), blood flow rate 200, effluent flow rate 35 mL/min, 2nd of four regions
# [12] = assembly on sternum (QLS25), blood flow rate 200, effluent flow rate 35 mL/min, 4th of four regions
smiles,measurement,setting,value
"Nc1nc(C(=O)N[C@H](CO)C(=O)O)c(N)nc1C(=O)N[C@H](CO)C(=O)O [MB-102, (2R,2′R)-2,2′-((3,6-diaminopyrazine-2,5-dicarbonyl)bis(azanediyl))bis(3-hydroxypropanoic acid)]",Saturation coefficient (mean ± SD),"[1]; CVVHD, HF1400, Qd 16.7 mL/min",1.27 ± 0.07
same,Saturation coefficient (mean ± SD),"[1]; CVVHD, HF1400, Qd 33.3 mL/min",1.27 ± 0.09
same,Saturation coefficient (mean ± SD),"[1]; CVVHD, HF1400, Qd 50 mL/min",1.37 ± 0.07
same,Saturation coefficient (mean ± SD),"[1]; CVVHD, HF1400, Qd 100 mL/min",1.02 ± 0.20
same,Saturation coefficient (mean ± SD),"[1]; CVVHD, M150, Qd 16.7 mL/min",1.06 ± 0.17
same,Saturation coefficient (mean ± SD),"[1]; CVVHD, M150, Qd 33.3 mL/min",1.11 ± 0.06
same,Saturation coefficient (mean ± SD),"[1]; CVVHD, M150, Qd 50 mL/min",1.60 ± 0.06
same,Saturation coefficient (mean ± SD),"[1]; CVVHD, M150, Qd 100 mL/min",0.84 ± 0.04
same,"Saturation coefficient (SA), overall summary in text","[1]; CVVHD, both hemodiafilters",approximately 1
same,mean SA values,[1]; low effluent flow rates (16-50 mL/min),approximately unity
same,Mean sieving coefficient,"[2]; HF1400, ultrafiltration rate 16.7 mL/min",1.14 ± 0.06
same,Mean sieving coefficient,"[2]; HF1400, ultrafiltration rate 33.3 mL/min",1.17 ± 0.03
same,Mean sieving coefficient,"[2]; HF1400, ultrafiltration rate 50 mL/min",1.18 ± 0.05
same,Mean sieving coefficient,"[2]; M150, ultrafiltration rate 16.7 mL/min",1.17 ± 0.12
same,Mean sieving coefficient,"[2]; M150, ultrafiltration rate 33.3 mL/min",1.17 ± 0.07
same,Mean sieving coefficient,"[2]; M150, ultrafiltration rate 50 mL/min",1.16 ± 0.07
same,Sieving coefficient (SC),"[2]; three different Quf, both hemodiafilters",approximately 1
same,MB-102 Clearance Rate Constant,[3]; [6],0.1439 h⁻¹
same,RDTC,[3]; [6],6.94 h
same,RDTC,"[3]; assembly on chest (QLS26), blood flow rate 100, effluent flow rate 20 mL/min, 3rd of four regions",11.87 h
same,MB-102 Clearance Rate Constant,[3]; [7],0.1769 h⁻¹
same,RDTC,[3]; [7],5.65 h
same,MB-102 Clearance Rate Constant,[3]; [8],0.1192 h⁻¹
same,RDTC,[3]; [8],8.39 h
same,MB-102 Clearance Rate Constant,[3]; [9],0.1174 h⁻¹
same,RDTC,[3]; [9],8.52 h
same,MB-102 Clearance Rate Constant,[3]; [10],0.0871 h⁻¹
same,RDTC,[3]; [10],11.48 h
same,MB-102 Clearance Rate Constant,[3]; [11],0.1870 h⁻¹
same,RDTC,[3]; [11],5.35 h
same,MB-102 Clearance Rate Constant,[3]; [12],0.1288 h⁻¹
same,RDTC,[3]; [12],7.76 h
same,protein binding,[4],0%
same,"adsorption to CRRT materials (tubing, hemodiafilters)",[5]; HF1400 and M150 hemodiafilters,not observed; also recorded: does not bind
same,mean percent change at the end of experiment,[5]; HF1400 hemodiafilter,18.7%
same,mean percent change at the end of experiment,[5]; M150 hemodiafilter,18.9%
